Laboratory results as given in patent US8846393B2, “Methods of improving stem cell homing and engraftment” (Gamida-Cell Ltd., priority 2005, dated 2014).

Columns and labels:
CD34+ cells = assay: In vitro transwell migration assay, CXCL12-induced; format: cell-based, human; settings: CXCL12 100 ng/ml, 4 hours, CD34+ cells after 3-week culture with cytokines+NA, compared to cytokines alone or non-cultured cells
Method: FIG. 2 is a histogram showing the effect of nicotinamide on in-vitro migration of hematopoietic cells. CXCL12 (100 ng/ml)-induced transwell migration of the purified CD34+ cells either before (non-cultured) or after 3-week culture with cytokines and nicotinamide (cytokines+NA) or cytokines alone (cytokines) (n=3, *p<0.02, **p=0.05) was measured as described hereinbelow. Note the enhanced migration of cells cultured in the presence of nicotinamide; Purified CD34+ cells were cultured in culture bags (American Fluoroseal Co., Gaithersburg, Md.) at 1×10^4 cells/ml in MEMα medium, 10% fetal calf serum (FCS) and cytokines: Thrombopoietin (TPO), interleukin-6 (IL-6), FLT-3 ligand and stem cell factor (SCF), each at a final concentration of 50 ng/ml (Perpo Tech, Inc., Rocky Hill, N.J.), with or without 5 mM nicotinamide (NA) (Sigma Aldrich, Milwaukee, Wis.) and incubated at 37° C. in a humidified atmosphere of 5% CO2 in air. […] Until week 3, the cultures were topped weekly with the same volume of fresh medium and then weekly demi-depopulated. Cell counting, colony forming unit (CFUc) assay and immunophenotype analysis were performed as described hereinbelow. […] After 4 hours, cells were collected from both chambers and counted by flow cytometry (FACSsort, Becton Dickinson and Co, San Jose, Calif., USA). […]

VLA-4 = assay: Shear flow experiments, VLA4-mediated binding to immobilized VCAM-1; format: cell-based, human; settings: CD34+ cells cultured with cytokines and nicotinamide
Method: FIG. 3 is a graph showing the effect of nicotinamide on VLA4-mediated binding of cells to immobilized adhesion molecules under shear flow. CD34+ cells cultured as described in FIGS. 1 and 2 hereinabove were assayed for capture and arrest under shear stress, on immobilized VCAM-1 adsorbed as 10 μl dots on polystyrene. Cell settling events, and arrest were analyzed under perfusion (shear stress) by video photography. Assayed cell populations were cells before culture (non-cultured, open circles), cells cultured with cytokines, as described in FIG. 2 (cultured, closed circles), and cells cultured with cytokines and nicotinamide (cultured+NA, closed triangles). […]
Soluble purified seven-domain human VCAM-1, sVCAM-1 was mixed in coating medium (PBS buffered with 20 mM sodium bicarbonate pH, 8.5) with a fixed amount of carrier (2 μg/ml HSA) and adsorbed as 10-μl spots on polystyrene plates (Becton Dickinson and Co, San Jose, Calif., USA) for 2 hours at 37° C., alone or with the indicated amounts of intact or heat-inactivated chemokines. […] VCAM-1 site densities were assessed using ^125I-labeled anti-VCAM-1 mAb, 4B9. […] The entire duration of cell perfusions were recorded on a videotape with a long integration LIS-700 CCD video camera (Applitech Rigicam, Israel) and a Time Lapse SVHS-Video recorder (AG-6730; Panasonic, Japan). […]

With `NC(=O)c1cccnc1` [nicotinamide] the CXCL12-induced migration (CD34+ cells) was “significantly higher” and the “percentage of initially settled cells resistant to removal by shear stress” value (VLA-4) was “significantly enhanced”.
